This note sets out measurements from patent publication US12035717B1, “2-OXO-2-({2-[(phenylcarbamoyl)oxy]ethyl} amino)ethyl phenylcarbamate as an eco-friendly insecticidal agent against spodoptera littoralis (boisd.)” (priority 2024, dated 2024).

The data set deals with Spodoptera littoralis larvae (laboratory strain of cotton leafworm). Kind of data set: Insecticidal leaf dip bioassay on S. littoralis larvae. Particulars: for LC50: after 72 hours of treatment, castor leaf dip; for Toxicity index % / Toxicity ratio: 72 hours; for Toxicity index %: fenoxycarb = 100; for Toxicity ratio: fenoxycarb's LC50/compound's LC50 * 100.
[1] abbreviates: Spodoptera littoralis, in Gossypium hirsutum, foliar, 72 h, 4th instar larvae.
Setting [2] is: Spodoptera littoralis, in Gossypium hirsutum, foliar, 72 h, 2nd instar larvae.

In brackets after ≈: the same amount, converted by molar mass.

Procedure: Five concentrations (200, 100, 50, 25, 12.5 ppm) were designed for this synthetic compound and the reference fenoxycarb's compound as the dynamic ingredients based on ppm via diluting the commercial formulation.
In this experiment, the synthetic compound was tested for its insecticidal bioactivity using the industry-standard leaf dip bioassay techniques. […] Until usage, the stocks were kept in a refrigerator. The target substance test results were noted & the concentrations needed to destroy 50% (LC50) of S. littoralis larvae were calculated. The target compound was employed in five different concentrations, & 0.1% Tween 80 was employed as a surfactant. Castor bean leaf discs (nine centimeters in diameter) were dipped in the concentration under test for ten seconds, then fed to 2th & 4th larvae, which were roughly the same size and housed in glass jars (five pound). Each action carried out 3 times with ten larvae each. The mortality equalized via Abbott's formula. Calculations of mortality setback line were measurably rummage via probity analysis. Harmfulness index was strongminded via sun equations. The mortality results of larval insect were estimated through employing probit analysis through a statistics (LDP-line) equation which estimate the LC50 values with 95% fiducially limits of lower, upper confidence limit and slope.

Consider `O=C(COC(=O)Nc1ccccc1)NCCOC(=O)Nc1ccccc1` [2-oxo-2-({2-[(phenylcarbamoyl)oxy]ethyl}amino)ethyl phenylcarbamate], for which the LC50 (usually the concentration that kills 50% of the test population) under setting [1] is approximately 81 µg/mL (≈ 227 µM).
As for `O=C(COC(=O)Nc1ccccc1)NCCOC(=O)Nc1ccccc1` [2-oxo-2-({2-[(phenylcarbamoyl)oxy]ethyl}amino)ethyl phenylca] [2-oxo-2-({2-[(phenylcarbamoyl)oxy]ethyl}amino)ethyl phenylcarbamate], the LC50 entry (2nd instar larvae) is given as “about 14.80 mg/L”.
`O=C(COC(=O)Nc1ccccc1)NCCOC(=O)Nc1ccccc1` [Compound 2, 2-oxo-2-({2-[(phenylcarbamoyl)oxy]ethyl}amino)ethyl phenylcarbamate]: for the setting “2nd instar larvae”, the Toxicity index % is on record as 40.13%. In addition, the Toxicity ratio (4th instar larvae) came out at 73.98. The molecule also came in with an LC50 (4th instar larvae) of 80.98 µg/mL (≈ 227 µM) and an LC50 under setting [2] of 14.8 µg/mL (≈ 41.4 µM). Further, the “Activity against Spodoptera littoralis (in words)” value (summary of Table 1 data) is “active against Spodoptera littoralis”.
`CCOC(=O)NCCOc1ccc(Oc2ccccc2)cc1` [Fenoxycarb, reference compound]: the Toxicity index % (2nd instar larvae) worked out at 100%. The Toxicity ratio (4th instar larvae) was 100. For the same molecule, the LC50 reads like this: under setting [2], 5.94 µg/mL (≈ 19.7 µM); under setting [1], 59.9 µg/mL (≈ 199 µM).
